# Measurements taken from BindingDB's records for doi:10.1021/bi000930v (Max Planck Institute, 2001).
# What was measured:
# [1] = target: T1, E3 ubiquitin-protein ligase Mdm2 (Homo sapiens, UniProt Q00987); assay: p53-MDM2 Binding ELISA; conditions: pH 7.4; 23 °C
# Method: Interference of the p53-MDM2 binding by test compounds was measured in a 96-well polypropylene round-bottom microtiter plate (Costar, Serocluster). Human MDM2 (amino acids 1-118) was preincubated with 10% DMSO or compounds in assay buffer. After 15-min incubation of the sample, a biotinylated p53-derived peptide was added. As a negative control, buffer only was added into separate wells (blanks). After another 30 min, the incubation mixture was added to 96-well plates coated with streptavidin. After 1 h, the wells were extensively washed. Then, the MDM2 specific antibody was added. After 1 h, the wells were thoroughly washed and the secondary antibody (anti-rabbit-IgG-POD) was added. After another hour, the wells were washed, and the peroxidase subtrate ABTS was added. After 30 min, OD 405/490 nm was determined with a Dynatech MR 7000 ELISA reader.
# [2] = target: T1, E3 ubiquitin-protein ligase Mdm2; assay: NMR Titration Experiment; conditions: pH 7.4; 23 °C
# Method: NMR measurements consisted of monitoring changes in chemical shifts and line widths of the backbone amide resonances of uniformly 15N-enriched MDM2 samples in a series of HSQC spectra as a function of a ligand concentration. The complexes of human MDM2 and the chalcones were prepared by mixing the protein and the ligand in the NMR tube. Typically, NMR spectra were recorded 15 min after mixing at room temperature. An initial screening of all compounds used in this study was performed with a 10-fold molar excess of chalcone to human MDM2. […] All KD values obtained by NMR spectroscopy are based on at least six data points.
# T1 sequence (Q00987 whole entry, the tested form may be a part): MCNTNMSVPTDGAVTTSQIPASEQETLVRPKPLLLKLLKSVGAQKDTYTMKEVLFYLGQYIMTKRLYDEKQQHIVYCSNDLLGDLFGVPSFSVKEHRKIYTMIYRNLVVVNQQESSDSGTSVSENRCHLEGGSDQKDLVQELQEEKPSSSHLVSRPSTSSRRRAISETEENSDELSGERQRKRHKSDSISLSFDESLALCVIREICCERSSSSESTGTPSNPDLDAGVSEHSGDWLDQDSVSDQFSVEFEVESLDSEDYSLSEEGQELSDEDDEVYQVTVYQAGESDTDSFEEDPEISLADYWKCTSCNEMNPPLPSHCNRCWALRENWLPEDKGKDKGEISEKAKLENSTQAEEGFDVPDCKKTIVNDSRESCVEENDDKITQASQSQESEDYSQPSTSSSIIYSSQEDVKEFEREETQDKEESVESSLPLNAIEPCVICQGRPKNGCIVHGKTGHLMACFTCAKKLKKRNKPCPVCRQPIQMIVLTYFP
IC50 [1],Kd [2],Compound
> 250 µM,,"CCOc1ccc(NC(=O)CC(=Nc2ccccc2)c2ccccc2)cc1 [Chalcone derivative, G]"
206 µM,220 µM,"O=C(O)COc1ccc(/C=C/C(=O)c2ccc(Cl)cc2)cc1 [Chalcone derivative, A]"
> 250 µM,,"Oc1ccc2ccc3c(c2c1)CN(Cc1ccccc1)CO3 [Chalcone derivative, D]"
> 250 µM,,"O=C(C(=S)Nc1ccccc1)C(C=Nc1ccccc1)c1ccccc1 (centres undefined) [Chalcone derivative, H]"
> 250 µM,,"O=C(CC(=Nc1ccccc1)c1ccccc1)Nc1ccccc1 [Chalcone derivative, F]"
250 µM,244 µM,"CC(C)(Oc1ccc(/C=C/C(=O)c2ccc(Cl)cc2)cc1)C(=O)O [Chalcone derivative, C]"

# Further lines, the compound ahead of its results:
Compound,IC50 [1],Kd [2]
"O=C(O)COc1ccc(C(=O)/C=C/c2ccc(Cl)c(Cl)c2)cc1 [Chalcone derivative, B-1]",117 µM,150 µM
"CCOC(=O)C(C)(C)Oc1ccc(CCNC(=O)/C=C/C(=O)c2ccc(Cl)cc2)cc1 [Chalcone derivative, E]",> 250 µM,
"O=C(O)COc1c(Br)cc(/C=C/C(=O)c2ccc3ccccc3c2)cc1Br [Chalcone derivative, N]",,270 µM
"O=C(O)COc1ccc(/C=C/C(=O)c2ccc(Cl)c(Cl)c2)cc1 [Chalcone derivative, B]",49 µM,90 µM
